Reference: patent US10512627B2, “Anti-tumor compound and the medical use thereof” (Tianjin Medical University Cancer Institute and Hospital, priority 2014, dated 2019)

Assays:
[1] = tested on: 4T1-luciferase cells; experiment: In situ model of breast cancer in nude mouse, lung metastasis by in vivo imaging (Example 7); design: species or system nude mice; settings: 20 mg/kg and 1 mg/kg tail vein, twice a day, 21 days; P<0.01
Protocol: 4) An in situ breast cancer model is constructed by in situ inoculating nude mice with 4T1 cells which are stably transfected with Luciferase, and the number of metastatic tumors on the lung is detected by in vivo imaging system. Such a model mimics the occurrence and metastasis of breast cancer.
The ability of (S)2-(4′-methyl-3′-nitrobenzoylamino)-3-phenylpropionic acid for inhibiting tumor metastasis in vivo was tested by in situ model of breast cancer in nude mouse.
1) Mice grouping: Nude female mice of SPF grade, 5 weeks old, 18˜22 g, 8 mice for each group;
2) The mother liquid of (S)2-(4′-methyl-3′-nitrobenzoylamino)-3-phenylpropionic acid (TCI04) for the dosage form administrated by intravenous injection was diluted to 2 mg/mL, 0.1 mg/mL by adding sterilized water. The dosage for administration in mice was as follows, high dosage of 20 mg/kg; low dosage of 1 mg/kg. […]
3) 4T1-luciferase cells in logarithmic growth phase were digested with 0.05% typsine for 1 min, after centrifugation at 1000 rpm for 5 min, the supernatant was discarded and the cells were resuspended and counted. […]
5) After the completion of the administration, the mice were detected by in vivo imaging system for the condition of tumor metastasis and immediately sacrificed; the lungs alone were detected by the in vivo imaging system for the light intensity to determine the number of tumor metastasis.

[2] = tested on: human breast cancer cell MDA-MB-231; experiment: Transwell invasion assay through Matrigel (Example 5); type: cell-based
Protocol: The inhibiting ability of (S)2-(4′-methyl-3′-nitrobenzoylamino)-3-phenylpropionic acid for the invasion of human breast cancer cell MDA-MB-231 was tested by Transwell invasion assay.
1) Gel placement into the Transwell chamber: Matrigel was melted under ice-bath of 4° C. overnight, and diluted with pre-cooled serum free DMEM medium at a ratio of 1:3. Transwell chamber was put in the 24-well plate, and 50 μL gel solution was added per chamber, stayed at 37° C. for 1 h, then 200 μL serum free DMEM medium was added and stayed for 15 min to make the gel reconstitute, and finally the medium was removed for stand-by;
2) MDA-MB-231 cells in logarithmic growth phase were plated in 6-well plate with the density of 1×10^6/3 mL, and after 12 h, the drug was added, with 100 μL per well. The final concentrations of (S)2-(4′-methyl-3′-nitrobenzoylamino)-3-phenylpropionic acid were 1, 2, and 4 μmol/L, respectively. The negative control was 100 μL sterilized water with 2% DMSO and the positive control was 1 μmol/L 4-methyl-3-nitrobenzoic acid. After 12 h, the medium was removed, followed by washing 3 times with PBS, and 3 ml medium without fetal bovine serum and 100 μL drug (concentration is as above) per well were added. […] The cell number was counted and the cells were seeded at the density of 2×10^5/200 μL into the Transwell chamber with the Matrigel. […]

[3] = tested on: human lung adenocarcinoma cell A549; experiment: Scratch test, migration of A549 (Example 4); type: cell-based; settings: 4 and 100 μmol/L, 0-36 h
Protocol: The inhibiting ability of (S)2-(4′-methyl-3′-nitrobenzoylamino)-3-phenylpropionic acid for the migration of human lung adenocarcinoma cell A549 was tested by scratch test.
A549 cells in logarithmic growth phase were plated in the 6-well plate with the density of 5×10^5/3 mL, and after 12 h, the drug was added, with 100 μL per well. The final concentrations of (S)2-(4′-methyl-3′-nitrobenzoylamino)-3-phenylpropionic acid (TCI04) were 4 and 100 μmol/L respectively. The negative control was 100 μL sterilized water with 2% DMSO and the positive control was 4, 100 μmol/L 4-methyl-3-nitrobenzoic acid (TCI01). After 36 h, the medium was removed, and after washing 3 times with PBS, 3 ml culture medium without fetal bovine serum and 100 μL drug (concentration was as above) per well were added. 6 h later, 200 μL tips were used to scratch, and after washing 4 times with PBS, 3 ml medium without fetal bovine serum per well was added. The distance of cell migration was recorded every 3 h under the inverted microscope, and photos were taken at 0 h and 36 h.

[4] = tested on: MDA-MB-231 cells; experiment: MTT assay, synergistic effect with Paclitaxel (Example 12); type: cell-based, human; settings: 20 μM, 24 or 48 h
Protocol: Synergistic effects of (S)2-(4′-methyl-3′-nitrobenzoylamino)-3-phenylpropionic acid and Paclitaxel was tested by MTT assay.
1) The MDA-MB-231 cells in logarithmic growth phase were seeded in the 96-well plate at a density of 4×10^3/0.2 ml. After culturing for 12 h, 10 μl Paclitaxel solution was added, with the final concentration of 0, 0.001, 0.01, 0.1, 1, 10, 50, 100, 200 μM, then 10 μL (S)2-(4′-methyl-3′-nitrobenzoylamino)-3-phenylpropionic acid PBS solution was add to half of the wells for each group with the final concentration of 20 μM, followed by continuous culturing for 24 or 48 h.
2) 5 mg/mL MTT solution was prepared with sterilized PBS, filtered with 0.22 μm film, and diluted with medium to 1 mg/mL. After discarding the medium in the 96-well plate, 100 μL 1 mg/mL MTT working solution was added, followed by continuous culturing for 5 h.
3) MTT working solution was discarded, and 150 μL DMSO was added per well (note: to away from light). The plate was shaken on a horizontal shaker at 170 rpm for 10 min, and then the absorbance at 490 nm was detected by microplate reader.

For `Cc1ccc(C(=O)N[C@@H](Cc2ccccc2)C(=O)O)cc1[N+](=O)[O-]` [(S)2-(4′-methyl-3′-nitrobenzoylamino)-3-phenylpropionic acid], the “light intensity of the whole lung vs negative control” value [1] was “significantly weaker than the negative control”, the “invaded cell number compared to the negative control” value ([2]; 1, 2, 4 μmol/L, 24 h, P<0.01) was “significantly less than the negative control” and the “invaded cell number compared to the positive control (1 μmol/L 4-methyl-3-nitrobenzoic acid)” value ([2]; 2, 4 μmol/L, P>0.05) was “no significant difference”. The “inhibition of migration ability (coalescence speed of cell scratch vs negative control)” value [3] was “significantly inhibited” and the “synergistic effect with Paclitaxel” value [4] was “strong synergistic effect”.
